In brackets after ≈: the same amount, converted by molar mass. Read-outs that look alike come from different tables or passages of the source.
Assays:
[1] = test system: MRSA COL and MRSA Strain No. 5; experiment: Potentiating effect of various gallates for antibacterial activity of oxacillin (MIC by broth microdilution method and FIC); assay type: cell-based, Staphylococcus aureus; details: for antibacterial activity when used alone: COL Strain and Strain No. 5; for FIC value: combination with oxacillin
Method: According to the broth microdilution method defined by Japan Society of Chemotherapy, MIC was determined. CAMHA was prepared by adding 50 mg/l of Ca-ion, 25 mg/l of Mg-ion, and 2% of NaCl to MHB (Mueller-Hinton Broth), and it was used as a medium for use in the measurement of sensitivity. In 96-well microplates 100 μl of the medium for use in the measurement of sensitivity containing drugs was dispensed. The bacterial liquid was incubated at 37° C. overnight, diluted with saline and added to the plate so that the final concentration of the bacteria was 5×10^5 CFU/well. […] FIC (fractional inhibitory concentration) was calculated from the result and the potency of the effect of the combination use was evaluated.

MRSA and MSSA = experiment: Antibacterial activity of gallic acid, various gallates and multivalent phenol derivatives alone (agar plate dilution method, MIC); assay type: cell-based, Staphylococcus aureus; details: Staphylococcus aureus; for MIC: read-out: MIC alone
Method: According to the agar plate dilution method defined by Japan Society of Chemotherapy, MIC (Minimum inhibitory concentration) was determined. CAMHA was prepared by adding 50 mg/l of Ca-ion, 25 mg/l of Mg-ion, and 2% of NaCl to Mueller-Hinton II Agar (MHA), and it was used as a medium for use in the measurement of sensitivity. The bacterial liquid was incubated at 37° C. overnight and diluted to 10^6 CFU/ml with saline.
MIC for gallic acid, various gallates and multivalent phenol derivatives alone with MRSA and MSSA were determined as described in experiment 2.

| SMILES | antibacterial activity when used alone [1] | FIC value ([1]; MRSA COL) | FIC value ([1]; MRSA Strain No. 5) | MIC50 (MRSA and MSSA) | MIC (MRSA and MSSA; ATCC 6538 / MRSA / MSSA) | MIC (MRSA and MSSA; COL) | MIC (MRSA and MSSA; MRSA #1) | MIC (MRSA and MSSA; MRSA #2) | MIC (MRSA and MSSA; MRSA #3) | MIC (MRSA and MSSA; MRSA #4) | MIC (MRSA and MSSA; MRSA #5) | MIC (MRSA and MSSA; MRSA #6) | MIC (MRSA and MSSA; MRSA #7) | MIC (MRSA and MSSA; MRSA #8) | MIC (MRSA and MSSA; MRSA #9) | MIC (MRSA and MSSA; MRSA #10) | MIC (MRSA and MSSA; MRSA #12) | MIC (MRSA and MSSA; MRSA #16) | MIC (MRSA and MSSA; MRSA #17) | MIC (MRSA and MSSA; MRSA #18) | also measured |
| --- | --- | --- | --- | --- | --- | --- | --- | --- | --- | --- | --- | --- | --- | --- | --- | --- | --- | --- | --- | --- | --- |
| CCCCCCCCCOC(=O)c1cc(O)c(O)c(O)c1 [Nonyl gallate, n-nonyl gallate] | most potent | 0.625 | 0.502 | 15.7 mg/L (≈ 53 µM) | 15.7 mg/L (≈ 53 µM) | 15.7 mg/L (≈ 53 µM) | 15.7 mg/L (≈ 53 µM) | 15.7 mg/L (≈ 53 µM) | 15.7 mg/L (≈ 53 µM) | 15.7 mg/L (≈ 53 µM) | 15.7 mg/L (≈ 53 µM) | 15.7 mg/L (≈ 53 µM) | 15.7 mg/L (≈ 53 µM) | 15.7 mg/L (≈ 53 µM) | 15.7 mg/L (≈ 53 µM) | 15.7 mg/L (≈ 53 µM) | 15.7 mg/L (≈ 53 µM) | 15.7 mg/L (≈ 53 µM) | 15.7 mg/L (≈ 53 µM) | 15.7 mg/L (≈ 53 µM) | MIC (MRSA and MSSA; MRSA #20): 15.7 mg/L (≈ 53 µM); MIC (MRSA and MSSA; MRSA #21): 15.7 mg/L (≈ 53 µM); MIC (MRSA and MSSA; MRSA #22): 15.7 mg/L (≈ 53 µM); MIC (MRSA and MSSA; MRSA #24): 15.7 mg/L (≈ 53 µM); MIC (MRSA and MSSA; MRSA and MSSR): 15.7 mg/L (≈ 53 µM); MIC (MRSA and MSSA; MSSA #1003): 15.7 mg/L (≈ 53 µM); MIC (MRSA and MSSA; MSSA #1010): 15.7 mg/L (≈ 53 µM); MIC (MRSA and MSSA; MSSA #1020): 15.7 mg/L (≈ 53 µM); MIC (MRSA and MSSA; MSSA #1023): 15.7 mg/L (≈ 53 µM); MIC (MRSA and MSSA; MSSA #1029): 15.7 mg/L (≈ 53 µM); MIC (MRSA and MSSA; MSSA #1032): 15.7 mg/L (≈ 53 µM) |
| CCCCCCCCOC(=O)c1cc(O)c(O)c(O)c1 [Octyl gallate, n-octyl gallate] | most potent | 0.252 | 0.75 | 31.3 mg/L (≈ 111 µM) | 31.3 mg/L (≈ 111 µM) | 31.3 mg/L (≈ 111 µM) | 31.3 mg/L (≈ 111 µM) | 31.3 mg/L (≈ 111 µM) | 31.3 mg/L (≈ 111 µM) | 31.3 mg/L (≈ 111 µM) | 31.3 mg/L (≈ 111 µM) | 31.3 mg/L (≈ 111 µM) | 31.3 mg/L (≈ 111 µM) | 31.3 mg/L (≈ 111 µM) | 31.3 mg/L (≈ 111 µM) | 15.6 mg/L (≈ 55.3 µM) | 31.3 mg/L (≈ 111 µM) | 31.3 mg/L (≈ 111 µM) | 31.3 mg/L (≈ 111 µM) | 31.3 mg/L (≈ 111 µM) | MIC (MRSA and MSSA; MRSA #20): 31.3 mg/L (≈ 111 µM); MIC (MRSA and MSSA; MRSA #21): 31.3 mg/L (≈ 111 µM); MIC (MRSA and MSSA; MRSA #22): 31.3 mg/L (≈ 111 µM); MIC (MRSA and MSSA; MRSA #24): 31.3 mg/L (≈ 111 µM); MIC (MRSA and MSSA; MSSA #1003): 31.3 mg/L (≈ 111 µM); MIC (MRSA and MSSA; MSSA #1010): 31.3 mg/L (≈ 111 µM); MIC (MRSA and MSSA; MSSA #1020): 31.3 mg/L (≈ 111 µM); MIC (MRSA and MSSA; MSSA #1023): 31.3 mg/L (≈ 111 µM); MIC (MRSA and MSSA; MSSA #1029): 31.3 mg/L (≈ 111 µM); MIC (MRSA and MSSA; MSSA #1032): 31.3 mg/L (≈ 111 µM) |
